Measurements as given in ChEMBL document CHEMBL1136462, “The effect of remote chirality on the antibacterial activity of indolinyl, tetrahydroquinolyl and dihydrobenzoxazinyl oxazolidinones” (Bioorg Med Chem Lett, 2003).
Values after ≈ are worked out from the molar mass of the structure shown.

Assays:
[1] = Clearance (Cl) of compound (10 mg/kg) after iv administration was determined in Sprague-Dawley rat; type: ADME, organism-based; conditions: in vivo
[2] = Tmax of compound (25 mg/kg) after po administration was determined in Sprague-Dawley rat; type: ADME, organism-based; conditions: in vivo
Mus musculus [3] = experiment: In vivo efficacy of compound to protect the Staphylococcus aureus UC9213 infected mouse from death after sc administration; type: functional
Haemophilus influenzae = experiment: In vitro antibacterial activity against ampicillin resistant Haemophilus influenzae 30063 (AMPR b-lactamase+); type: functional
Streptococcus pneumoniae = experiment: In vitro antibacterial activity against penicillin susceptible Streptococcus pneumoniae UC19912 (PSSP); type: functional
[4] = Maximum plasma concentration (Cmax) of compound (25 mg/kg) after po administration was determined Sprague-Dawley rat; type: ADME, organism-based; design: dose 25 mg/kg, route oral
Moraxella catarrhalis = experiment: In vitro antibacterial activity against Moraxella catarrhalis 30607 (b-lactamase+).; type: functional
[5] = tested on: Staphylococcus epidermidis; experiment: In vitro antibacterial activity against methicillin resistant Staphylococcus epidermis US 12084 (MRSE); type: functional
[6] = Tmax of compound (19.76 mg/kg) after po administration was determined in Sprague-Dawley rat; type: ADME, organism-based; conditions: in vivo
Staphylococcus aureus [7] = experiment: In vitro antibacterial activity against Staphylococcus aureus UC12673 (SA2); type: functional
[8] = Maximum plasma concentration (Cmax) of compound (9.84 mg/kg) after iv administration was determined Sprague-Dawley rat; type: ADME, organism-based; design: dose 9.84 mg/kg, route intravenous
Rattus norvegicus [9] = experiment: Clearance (Cl) of compound (9.84 mg/kg) after iv administration was determined in Sprague-Dawley rat; type: ADME, organism-based; conditions: in vivo
Enterococcus faecalis = experiment: In vitro antibacterial activity against vancomycin susceptible Enterococcus faecalis UC19217 (VSEF); type: functional
Rattus norvegicus [10] = experiment: Steady state volume distribution (Vss) of compound(9.84 mg/kg) after iv administration was determined in Sprague-Dawley rat; type: ADME, organism-based; conditions: in vivo
[11] = Oral bioavailability of compound (19.76 mg/kg) after po administration was determined in Sprague-Dawley rat; type: ADME, organism-based; conditions: in vivo
Rattus norvegicus [12] = experiment: Half life of compound (9.84 mg/kg) after iv administration was determined in Sprague-Dawley rat; type: ADME, organism-based; conditions: in vivo
[13] = Maximum plasma concentration (Cmax) of compound (19.76 mg/kg) after po administration was determined Sprague-Dawley rat; type: ADME, organism-based; design: dose 19.76 mg/kg, route oral
[14] = Half life of compound (9.84 mg/kg) after po administration was determined in Sprague-Dawley rat; type: ADME, organism-based; conditions: in vivo
Staphylococcus aureus [15] = experiment: In vitro antibacterial activity against methicillin susceptible Staphylococcus aureus UC19213 (MSSA); (SA1); type: functional
[16] = Steady state volume distribution (Vss) of compound after iv administration was determined in Sprague-Dawley rat; type: ADME, organism-based; conditions: in vivo, read-out: Vss
[17] = Half life of compound (20.73 mg/kg) after po administration was determined in Sprague-Dawley rat; type: ADME, organism-based; conditions: in vivo
[18] = Tmax of compound (20.73 mg/kg) after po administration was determined in Sprague-Dawley rat; type: ADME, organism-based; conditions: in vivo
[19] = Maximum plasma concentration (Cmax) of compound (20.73 mg/kg) after po administration was determined Sprague-Dawley rat; type: ADME, organism-based; design: dose 20.73 mg/kg, route oral
[20] = Maximum plasma concentration (Cmax) of compound (9.92 mg/kg) after iv administration was determined Sprague-Dawley rat; type: ADME, organism-based; design: dose 9.92 mg/kg, route intravenous
[21] = Oral bioavailability of compound (20.73 mg/kg) after po administration was determined in Sprague-Dawley rat; type: ADME, organism-based; conditions: in vivo
[22] = Clearance (Cl) of compound (9.92 mg/kg) after iv administration was determined in Sprague-Dawley rat; type: ADME, organism-based; conditions: in vivo
[23] = Half life of compound (9.92 mg/kg) after iv administration was determined in Sprague-Dawley rat; type: ADME, organism-based; conditions: in vivo
Mus musculus [24] = experiment: In vivo efficacy of compound to protect the Staphylococcus aureus UC9213 infected mouse from death after po administration; type: functional

`CC(=O)NC[C@H]1CN(c2ccc(N3CCOCC3)c(F)c2)C(=O)O1` [LINEZOLID] showed a clearance [1] of 10.5 mL/min/kg, a Tmax [2] of 18 min and an ED50 (Mus musculus [3]) of 5.6 mg/kg. For the same molecule, the MIC (Haemophilus influenzae) was 16 µg/mL (≈ 47.4 µM), the MIC (Streptococcus pneumoniae) was less than 0.5 µg/mL and the Cmax [4] was 15800 ng/mL. It also gave an MIC (Moraxella catarrhalis) of 8 µg/mL (≈ 23.7 µM) and an MIC [5] of less than 1 µg/mL.
For `CC(=O)NC[C@H]1CN(c2ccc3c(c2)C[C@@H](C)N3C=O)C(=O)O1`, the Tmax [6] was 30 min, the MIC (Staphylococcus aureus [7]) was 1 µg/mL (≈ 3.15 µM) and the Cmax [8] was 16100 ng/mL. The CL (Rattus norvegicus [9]) was 1.84 mL/min/kg, the MIC (Enterococcus faecalis) was 1 µg/mL (≈ 3.15 µM) and the Vss (Rattus norvegicus [10]) was 1.27 L/kg. For the same molecule, the bioavailability [11] was 56%, the MIC (Haemophilus influenzae) was 8 µg/mL (≈ 25.2 µM) and the MIC (Streptococcus pneumoniae) was less than 0.5 µg/mL. It also gave a T1/2 (Rattus norvegicus [12]) of 102 min, a Cmax [13] of 7200 ng/mL and a half-life [14] of 48 min. The MIC (Moraxella catarrhalis) was 4 µg/mL (≈ 12.6 µM), the MIC (Staphylococcus aureus [15]) was 1 µg/mL (≈ 3.15 µM) and the MIC [5] was less than 0.5 µg/mL.
Molecule `C/C(S)=N/C[C@H]1CN(c2ccc3c(c2)C[C@@H](C)N3C(=O)CO)C(=O)O1` has an MIC (Staphylococcus aureus [7]) of less than 0.5 µg/mL, an MIC (Enterococcus faecalis) of less than 0.5 µg/mL and an MIC (Haemophilus influenzae) of 8 µg/mL (≈ 22 µM). It also gave an MIC (Streptococcus pneumoniae) of less than 0.5 µg/mL, an MIC (Moraxella catarrhalis) of 2 µg/mL (≈ 5.5 µM) and an MIC (Staphylococcus aureus [15]) of less than 0.5 µg/mL. The MIC [5] was less than 0.5 µg/mL.
`CC(=O)NC[C@H]1CN(c2ccc3c(c2)CC[C@@H](C)N3C=O)C(=O)O1` gave an MIC (Staphylococcus aureus [7]) of 1 µg/mL (≈ 3.02 µM), an MIC (Enterococcus faecalis) of 1 µg/mL (≈ 3.02 µM) and an MIC (Haemophilus influenzae) of 32 µg/mL (≈ 96.6 µM). It also gave an MIC (Streptococcus pneumoniae) of less than 0.5 µg/mL, an MIC (Moraxella catarrhalis) of 4 µg/mL (≈ 12.1 µM) and an MIC (Staphylococcus aureus [15]) of 2 µg/mL (≈ 6.04 µM). For the same molecule, the MIC [5] was less than 0.5 µg/mL.
Molecule `CC(=O)NC[C@H]1CN(c2ccc3c(c2)C[C@@H](C)N3C(=O)CO)C(=O)O1` has a Vd [16] of 1.28 L/kg, an MIC (Staphylococcus aureus [7]) of 2 µg/mL (≈ 5.76 µM) and a half-life [17] of 168 min. The Tmax [18] was 30 min, the MIC (Enterococcus faecalis) was 2 µg/mL (≈ 5.76 µM) and the Cmax [19] was 3800 ng/mL. The Cmax [20] was 15100 ng/mL, the bioavailability [21] was 55.4% and the clearance [22] was 24 mL/min/kg. For the same molecule, the half-life [23] was 108 min, the MIC (Haemophilus influenzae) was 8 µg/mL (≈ 23 µM) and the MIC (Streptococcus pneumoniae) was 0.5 µg/mL (≈ 1.44 µM). The ED50 (Mus musculus [24]) was 1.8 mg/kg, the MIC (Moraxella catarrhalis) was 8 µg/mL (≈ 23 µM) and the MIC (Staphylococcus aureus [15]) was 4 µg/mL (≈ 11.5 µM). It also gave an MIC [5] of 0.5 µg/mL (≈ 1.44 µM).
For `C/C(S)=N/C[C@H]1CN(c2ccc3c(c2)CC[C@H](C)N3C=O)C(=O)O1`, the MIC (Staphylococcus aureus [7]) was 1 µg/mL (≈ 2.88 µM), the MIC (Enterococcus faecalis) was 2 µg/mL (≈ 5.76 µM) and the MIC (Haemophilus influenzae) was 16 µg/mL (≈ 46.1 µM). For the same molecule, the MIC (Streptococcus pneumoniae) was less than 0.5 µg/mL, the MIC (Moraxella catarrhalis) was 2 µg/mL (≈ 5.76 µM) and the MIC (Staphylococcus aureus [15]) was 1 µg/mL (≈ 2.88 µM). The MIC [5] was less than 0.5 µg/mL.
In the case of `CC(=O)NC[C@H]1CN(c2ccc3c(c2)OC[C@@H](C)N3C=O)C(=O)O1`, the MIC (Staphylococcus aureus [7]) is reported as 2 µg/mL (≈ 6 µM), the MIC (Enterococcus faecalis) is reported as 4 µg/mL (≈ 12 µM) and the MIC (Haemophilus influenzae) is reported as 64 µg/mL (≈ 192 µM). The MIC (Streptococcus pneumoniae) was less than 1 µg/mL, the MIC (Moraxella catarrhalis) was 8 µg/mL (≈ 24 µM) and the MIC (Staphylococcus aureus [15]) was 4 µg/mL (≈ 12 µM). For the same molecule, the MIC [5] was less than 1 µg/mL.
With `C/C(S)=N/C[C@H]1CN(c2ccc3c(c2)CC[C@@H](C)N3C=O)C(=O)O1` the MIC (Staphylococcus aureus [7]) was less than 0.5 µg/mL, the MIC (Enterococcus faecalis) was less than 0.5 µg/mL and the MIC (Haemophilus influenzae) was 4 µg/mL (≈ 11.5 µM). For the same molecule, the MIC (Streptococcus pneumoniae) was less than 0.5 µg/mL, the MIC (Moraxella catarrhalis) was 1 µg/mL (≈ 2.88 µM) and the MIC (Staphylococcus aureus [15]) was less than 0.5 µg/mL. For the same molecule, the MIC [5] was less than 0.5 µg/mL.
